# Test results as given in US20150065440A1 (Progen Pharmaceuticals Limited, priority 2007, published 2015).
# Where a name gives a salt, the structure may show the parent alone. Read-outs that look alike come from different tables or passages of the source.
# Key:
# [1] = test system: pooled normal human plasma; experiment: Anticoagulant activity, APTT; conditions: 0.1 mg/mL in normal pooled human plasma
# Protocol: APTT measurements were performed on a STAGO STA-Compact Coagulation Analyser using standard protocols according to the manufacturer's instructions. Unfractionated heparin (UFH) was used as a control.
# [2] = test system: RSV; experiment: Viral plaque number-reduction assay, RSV; conditions: human respiratory syncytial virus, read-out: RSV IC50
# Protocol: (§1) African green monkey kidney (GMK AH1) cells^46 were cultured in Eagle's minimum essential medium (EMEM) supplemented with 2% calf serum, 0.05% Primaton RL substance (Kraft Inc., Norwich, USA) and antibiotics. Human epidermoid carcinoma (HEp-2) cells were cultured in Dulbecco's modified EMEM (DMEM) supplemented with 10% fetal calf serum and antibiotics. […] The RSV strain A-2^50 was used. The RSV stock was prepared as described by Hallak et al.^51 and stored at −70° C. in the presence of 40% sucrose^52.
# (§2) The viral infectivity (the plaque number-reduction) assay and the plaque size-reduction assay were carried out as described previously^17. […] Subsequently, the cells were washed with 2 mL of EMEM and overlaid with 1% methylcellulose solution in EMEM. The plaques were visualized by staining with crystal violet solution after 2 (HSV-2) or 3 (HSV-1) days of incubation at 37° C. […] When the compounds were screened for anti-HSV or anti-RSV activity, mixtures of 200 PFU of the virus and the test compound (100 μg/mL) in serum-free EMEM were incubated for 10 min at room temperature before addition to cells and during the entire period of viral infection of cells and the development of viral plaques. In the plaque size-reduction assay, the compounds were added to cells (in methylcellulose overlay medium) after 2 h period of virus infection of cells in the absence of the inhibitor. After 2-3 days of incubation at 37° C., the viral plaques were visualized by staining the cells with 1% solution of crystal violet. For each compound tested, the images of twenty neighboring plaques were captured using a Leica DC300 digital camera attached to a Leitz-Wetzlar Diavert microscope. The area of each plaque was determined using IM500 image software (Leica). Similar protocols were used for RSV, except that the assays were performed in HEp-2 cells and DMEM supplemented with 2% heat-inactivated fetal calf serum was used instead of EMEM.
# [3] = test system: HUVEC proliferation induced by FGF-1; experiment: Growth factor induced endothelial cell proliferation assay, FGF-1; format: cell-based, human; conditions: Homo sapiens, HUVEC, 72 h; read-out: FGF-1 (IC50) inhibition of HUVEC proliferation
# Source text: (§3) HUVEC cells were maintained and subcultured according to standard cell culture protocols essentially as described by Lonza. Briefly, cells were maintained in Lonza endothelial growth media (EGM) with recommended supplements and growth factors (VEGF, FGF2, EFG, IGF, hydrocortisone, fetal bovine serum (FBS), ascorbic acid, heparin and gentamicin). Cells were subcultured when they reached 70-80% confluence by trypsinisation and reseeding in fresh growth medium in new culture vessels at 2500 to 5000 cells/cm^2 of vessel surface area. Cell counts were performed using a haemocytometer and viable cells were visualized with trypan blue.
# (§4) Medium for the proliferation studies was prepared using EGM with 2% FBS and gentamicin only. In a later study, complete EGM was used for the VEGF groups in an attempt to enhance the proliferative index of VEGF-stimulated groups. For the tube formation assay, complete medium was used with only heparin omitted. Compounds under investigation were weighed out from powder stocks and diluted in PBS to 10 mM stock solutions and stored at −80° C. For experiments, compounds were subsequently diluted in EBM-2 medium (supplemented with 2% FBS and gentamicin) to various working concentration as required.
# (§5) In the first of a series of experiments, the assay was further optimized by examining the cell density and growth factor concentration required to induce maximal proliferation by growth factors. Briefly, 100 μL of cells was added to each well at concentrations between 1-3×10^3 per well. Growth factors and test compounds were then added in 50 μL volumes at specified concentrations to obtain a final volume of 200 μL. Following incubation for 70 h, 20 μL of the CellTitre 96® Aqueous One Solution Cell Proliferation Assay (Promega) was added for 2 h prior to reading the absorbance at 490 nm to obtain OD values.
# [4] = target: T1, recombinant human heparanase (Homo sapiens, UniProt Q9Y251); experiment: Heparanase inhibition assay (fondaparinux cleavage, WST-1)
# T1 sequence (Q9Y251 158-543 limits assumed): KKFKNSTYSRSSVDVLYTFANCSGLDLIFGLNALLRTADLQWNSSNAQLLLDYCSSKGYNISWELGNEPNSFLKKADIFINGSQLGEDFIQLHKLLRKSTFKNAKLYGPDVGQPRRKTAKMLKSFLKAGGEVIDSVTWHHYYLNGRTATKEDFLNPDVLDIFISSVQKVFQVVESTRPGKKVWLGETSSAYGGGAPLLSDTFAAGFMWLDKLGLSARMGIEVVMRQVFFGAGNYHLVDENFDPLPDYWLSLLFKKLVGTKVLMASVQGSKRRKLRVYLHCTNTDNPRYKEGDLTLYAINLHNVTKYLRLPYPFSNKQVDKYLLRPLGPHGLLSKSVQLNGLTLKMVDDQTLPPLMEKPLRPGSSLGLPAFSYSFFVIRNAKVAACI
# T1 sequence (Q9Y251 36-109 limits assumed): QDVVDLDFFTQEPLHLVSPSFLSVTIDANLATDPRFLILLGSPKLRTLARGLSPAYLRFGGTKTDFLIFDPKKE
# Protocol: In the presence of an inhibitor the catalytic activity of heparanase is reduced, and the amount of disaccharide produced and the optical density of the solution are both decreased. The percent inhibition and IC50 of the inhibitor are determined from measurement of the optical density (OD) over a range of inhibitor concentrations.
# Assays were carried out in 40 mM sodium acetate buffer, pH 5.0, as follows. […] A blue colour was developed by incubation of the plates at 60° C. for 60 min. […] The IC50 value for each compound was evaluated and converted into a Ki (inhibition constant) using the expression
# [5] = test system: HUVEC proliferation induced by FGF-2; experiment: Growth factor induced endothelial cell proliferation assay, FGF-2; format: cell-based, human; conditions: Homo sapiens, HUVEC, 72 h; read-out: FGF-2 (IC50) inhibition of HUVEC proliferation
# Source text: as §3, §4, §5
# [6] = target: FGF-1 (Homo sapiens, UniProt P05230); experiment: Growth factor binding assay (SPR solution affinity), FGF-1
# FGF-1, sequence (P05230 whole entry, species assumed): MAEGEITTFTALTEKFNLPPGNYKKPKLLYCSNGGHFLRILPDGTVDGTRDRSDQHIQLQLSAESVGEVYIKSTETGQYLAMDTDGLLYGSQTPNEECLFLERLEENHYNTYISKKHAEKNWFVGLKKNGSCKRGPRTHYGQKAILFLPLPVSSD
# Protocol: (§6) Binding affinities of compounds for the growth factors FGF-1, FGF-2 and VEGF were measured using a surface plasmon resonance (SPR) based solution affinity assay.^9 Heparin-coated sensorchips used for this assay were prepared via immobilisation of biotinylated BSA-heparin on a streptavidin-coated sensorchip, or via aldehyde coupling using either adipic acid dihydrazide or 1,4-diaminobutane.^9 For each Kd measurement, solutions were prepared containing a fixed concentration of protein and varying concentrations of the ligand in buffer. Ligands binding to FGF-1 and VEGF were measured in HBS-EP buffer (10 mM HEPES, pH 7.4, 150 mM NaCl, 3.0 mM EDTA and 0.005% (v/v) polysorbate 20), while binding to FGF-2 was measured in HBS-EP buffer containing 0.3 M NaCl. Prior to injection, samples were maintained at 4° C. to maximise protein stability. For each assay mixture, 50-200 μL of solution was injected at 5-40 μL/min and the relative binding response measured. All surface binding experiments were performed at 25° C. The surface was regenerated by injection of 40 μL of 4M NaCl at 40 μL/min, followed by injection of 40 μL of buffer at 40 μL/min.
# (§7) Sensorgram data were analysed using the BIAevaluation software (BIAcore) and Kd values determined as previously described.^9 Where Kd values were measured in duplicate, the values represent the average of the duplicate measurements.
# [7] = target: T2, VEGF (Homo sapiens, UniProt P15692); experiment: Growth factor binding assay (SPR solution affinity), VEGF; conditions: HBS-EP buffer, 25° C.
# T2 sequence (P15692 207-395): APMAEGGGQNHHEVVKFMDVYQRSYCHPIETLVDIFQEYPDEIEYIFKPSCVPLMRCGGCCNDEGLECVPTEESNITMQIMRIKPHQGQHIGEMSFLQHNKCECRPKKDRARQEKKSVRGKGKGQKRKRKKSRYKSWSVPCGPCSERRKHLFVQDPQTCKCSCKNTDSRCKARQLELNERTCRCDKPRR
# Protocol: as §6, §7
# [8] = test system: HUVEC proliferation induced by VEGF; experiment: Growth factor induced endothelial cell proliferation assay, VEGF; format: cell-based, human; conditions: Homo sapiens, HUVEC, 72 h; read-out: VEGF (IC50) inhibition of HUVEC proliferation
# Source text: as §3, §4, §5
# [9] = test system: HSV-2; experiment: Viral plaque number-reduction assay, HSV-2; conditions: Human alphaherpesvirus 2, read-out: HSV-2 IC50
# Protocol: as §1, §2
# [10] = test system: normal pooled human plasma; experiment: Anticoagulant activity, Heptest; conditions: 0.1 mg/mL in normal pooled human plasma
# [11] = target: FGF-2 (Homo sapiens, UniProt P09038); experiment: Growth factor binding assay (SPR solution affinity), FGF-2
# FGF-2, sequence (P09038 143-288, species assumed): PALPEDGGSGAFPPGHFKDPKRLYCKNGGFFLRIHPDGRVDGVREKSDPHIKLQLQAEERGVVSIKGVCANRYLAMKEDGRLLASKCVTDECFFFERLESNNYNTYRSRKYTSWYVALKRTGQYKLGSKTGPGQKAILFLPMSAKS
# Protocol: as §6, §7
# [12] = format: in vivo, Sprague-Dawley rats; conditions: rat, in vivo
# Protocol: Adult male Sprague-Dawley (SD) rats (approx 300 g) were used for the experiment. Femoral artery cannulae was implanted and exteriorised following isoflurane anaesthesia. Jugular vein artery cannulae was implanted and exteriorized. […]. Blood samples (˜325 μL) were collected into sample tubes containing the anticoagulant sodium citrate from femoral artery catheter pre-dose and at 5, 20 minutes and 2, 5, 8, 12, 24, and 48 hours post-dose, and kept at reduced temperature (approx 4° C.) until centrifuged. Blood samples were centrifuged, plasma separated and 50 μL aliquot of the plasma transferred to a scintillation vial for counting. At the end of the experimental period animals were euthanased via a lethal overdose of pentobarbital. The level of radioactivity in the plasma was measured following mixing of samples with Packard Ultima Gold liquid scintillation counting cocktail. Counting was conducted on a Beckman liquid scintillation counter (LS6500) or Packard TriCarb liquid scintillation counter for 10 minutes per sample. Results (DPM, calculated from an in-built quench curve in the counter) were corrected for background prior to any calculations. The pharmacokinetic parameters were calculated using PK Solutions 2.0 software (Summit Research Services, Ohio, U.S.A.) and are summarised in Table 11 below.
# [13] = SPR, HBS-EP buffer, 25° C., read-out: Kd FGF-1
# [14] = SPR, HBS-EP buffer containing 0.3 M NaCl, 25° C., read-out: Kd FGF-2
compound,measurement,setting,value
"CC(C)CCC[C@@H](C)[C@H]1CC[C@H]2[C@@H]3CC[C@H]4C[C@@H](O[C@H]5O[C@H](COS(=O)(=O)O)[C@@H](OS(=O)(=O)O)[C@H](OS(=O)(=O)O)[C@@H]5OS(=O)(=O)O)CC[C@]4(C)[C@H]3CC[C@]12C [Compound 79, 3β-Cholestanyl 2,3,4,6-tetra-O-sulfonato-α-D-mannopyranoside tetrasodium salt]",APTT,[1],36.1 s
same,IC50,[2],2.9 µg/mL
same,IC50,[3],2200 nM
same,Ki,"[4]; read-out: Ki Heparanase, IC50 converted into Ki, fondaparinux 100 μM, pH 5.0",111 ± 28 nM
same,IC50,[5],2900 nM
same,Kd,[6]; [13],3600 ± 600 nM
same,Kd,[7],3000 ± 400 nM
same,IC50,[8],2240 nM
same,IC50,[9],0.28 µg/mL
same,Heptest,[10],23.9 s
"CC(C)CCCC(C)C1CCC2C3CCC4CC(OCc5cn(C6OC(COS(=O)(=O)O)C(OC7OC(COS(=O)(=O)O)C(OS(=O)(=O)O)C(OS(=O)(=O)O)C7OS(=O)(=O)O)C(OS(=O)(=O)O)C6OS(=O)(=O)O)nn5)CCC4(C)C3CCC12C [Compound 93, 4-(Cholestan-3β-yl-oxymethyl) [1,2,3]triazol-1-yl 2,3,4,6-tetra-O-sulfo-β-D-galactopyranosyl-(1→4)-2,3,6-tri-O-sulfo-β-D-glucopyranoside, heptasodium salt]",Kd,[11],1800 ± 300 nM
same,APTT,[1],39.6 s
same,IC50,[2],0.4 µg/mL
same,IC50,[3],2690 nM
same,Ki,[4],30 ± 7 nM
same,IC50,[5],2430 nM
same,Kd,[6],610 ± 210 nM
same,Kd,[7],1600 ± 300 nM
same,IC50,[8],2620 nM
same,IC50,[9],0.27 µg/mL
same,Heptest,[10],25.3 s
"CC(C)CCC[C@@H](C)[C@H]1CC[C@H]2[C@@H]3CC[C@H]4C[C@@H](OCc5cn([C@@H]6O[C@H](COS(=O)(=O)O)[C@@H](O[C@H]7O[C@H](COS(=O)(=O)O)[C@@H](OS(=O)(=O)O)[C@H](OS(=O)(=O)O)[C@H]7OS(=O)(=O)O)[C@H](OS(=O)(=O)O)[C@H]6OS(=O)(=O)O)nn5)CC[C@]4(C)[C@H]3CC[C@]12C [Compound 97, 4-(Cholestan-3β-yl-oxymethyl) [1,2,3]triazol-1-yl 2,3,4,6-tetra-O-sulfo-α-D-glucopyranosyl-(1→4)-2,3,6-tri-O-sulfo-β-D-glucopyranoside, heptasodium salt]",Kd,[11]; [14],3400 ± 300 nM
same,APTT,[1],40.3 s
same,IC50,[2],0.58 µg/mL
same,IC50,[3],4090 nM
same,IC50,[5],4170 nM
same,Kd,[6]; [13],840 ± 130 nM
same,Kd,[7],1930 ± 230 nM
same,IC50,[8],1130 nM
same,IC50,[9],0.26 µg/mL
same,Heptest,[10],26.7 s
"CC(C)CCCC(C)C1CCC2C3CCC4CC(OC5OC(COS(=O)(=O)O)C(OC6OC(COS(=O)(=O)O)C(OS(=O)(=O)O)C(OS(=O)(=O)O)C6OS(=O)(=O)O)C(OS(=O)(=O)O)C5OS(=O)(=O)O)CCC4(C)C3CCC12C [Compound 102, 3′-Cholestanyl 2,3,4,6-tetra-O-sulfo-α-D-glucopyranosyl-(1→4)-2,3,6-tri-O-sulfo-β-D-glucopyranoside, heptasodium salt]",Kd,[11]; [14],2200 ± 400 nM
same,APTT,[1],38.6 s
same,IC50,[2],1.8 µg/mL
same,IC50,[3],3950 nM
same,IC50,[5],> 10000 nM
same,Kd,[6],560 ± 30 nM
same,Kd,[7],1200 ± 400 nM
same,IC50,[8],5170 nM
same,IC50,[9],0.43 µg/mL
same,Heptest,[10],23.9 s
PI-88 [reference compound],Half-life (iv),[12]; iv,1.1 h
same,Half-life (sc),[12]; sc,1.2 h
